Data on 37 compounds can be found in the Kinase Knowledgebase extract (Sharma et al. 2016).

For the test, the target named is EGFR (UniProt P00533).
EGFR, sequence (P00533 whole entry, looked up): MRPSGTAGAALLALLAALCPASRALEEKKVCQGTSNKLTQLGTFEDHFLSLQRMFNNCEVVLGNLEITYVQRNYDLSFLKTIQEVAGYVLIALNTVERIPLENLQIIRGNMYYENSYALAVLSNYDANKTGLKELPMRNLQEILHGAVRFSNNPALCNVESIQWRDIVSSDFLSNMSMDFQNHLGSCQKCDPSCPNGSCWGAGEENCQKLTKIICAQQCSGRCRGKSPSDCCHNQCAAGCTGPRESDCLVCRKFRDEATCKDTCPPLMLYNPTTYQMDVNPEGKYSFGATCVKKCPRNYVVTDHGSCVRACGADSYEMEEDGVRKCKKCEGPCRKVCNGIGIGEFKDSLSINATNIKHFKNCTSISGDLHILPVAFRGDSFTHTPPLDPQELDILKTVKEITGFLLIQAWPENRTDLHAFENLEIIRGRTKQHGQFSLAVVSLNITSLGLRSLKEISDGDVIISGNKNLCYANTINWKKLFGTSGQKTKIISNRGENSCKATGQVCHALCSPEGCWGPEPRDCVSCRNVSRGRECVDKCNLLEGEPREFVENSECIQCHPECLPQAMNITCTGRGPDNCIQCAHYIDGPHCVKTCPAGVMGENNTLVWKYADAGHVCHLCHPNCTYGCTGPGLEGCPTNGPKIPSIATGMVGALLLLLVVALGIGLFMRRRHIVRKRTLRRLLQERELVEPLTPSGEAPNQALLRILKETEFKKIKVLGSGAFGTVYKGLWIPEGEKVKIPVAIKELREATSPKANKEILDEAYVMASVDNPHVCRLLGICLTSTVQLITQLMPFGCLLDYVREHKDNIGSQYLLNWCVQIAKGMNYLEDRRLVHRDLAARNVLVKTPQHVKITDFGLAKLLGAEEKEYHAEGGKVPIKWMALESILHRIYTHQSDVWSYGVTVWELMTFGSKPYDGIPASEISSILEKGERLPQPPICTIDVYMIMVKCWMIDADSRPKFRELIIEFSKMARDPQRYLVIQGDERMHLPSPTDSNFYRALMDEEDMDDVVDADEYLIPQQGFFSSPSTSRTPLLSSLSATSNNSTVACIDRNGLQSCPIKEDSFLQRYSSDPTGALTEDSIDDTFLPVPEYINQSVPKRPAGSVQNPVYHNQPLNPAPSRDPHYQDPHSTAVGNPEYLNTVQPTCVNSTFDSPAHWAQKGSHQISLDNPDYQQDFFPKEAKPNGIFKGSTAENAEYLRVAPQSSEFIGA
In turn, `CS(=O)(=O)CCNCc1ccc(C#Cc2cncnc2Nc2ccc(OCc3cccc(F)c3)c(Cl)c2)o1` gave a half-maximal inhibitory concentration (IC50) of at most 10 µM. The figure for `Oc1ccc(C#Cc2cncnc2Nc2ccc(OCc3cccc(F)c3)c(Cl)c2)cc1` is at most 10 µM; for `CNC(=O)NCc1cccc(C#Cc2cncnc2Nc2ccc(OCc3cccc(F)c3)c(Cl)c2)n1` it is at most 10 µM. As for `O=Cc1ccccc1C#Cc1cncnc1Nc1ccc(OCc2cccc(F)c2)c(Cl)c1`, the figure is at most 10 µM; as for `CC(=O)Nc1ccc(/C=C/c2cncnc2Nc2ccc(OCc3cccc(F)c3)c(Cl)c2)cn1`, at most 10 µM; as for `C(=C\c1cncnc1Nc1ccc2c(cnn2Cc2ccccc2)c1)/c1ccncc1`, at most 10 µM. The figure for `CSc1nccc(C#Cc2cncnc2Nc2ccc(OCc3cccc(F)c3)c(Cl)c2)n1` is at most 10 µM; for `Fc1cccc(COc2ccc(Nc3ncncc3C#Cc3nccs3)cc2Cl)c1` it is at most 10 µM. With `Fc1cccc(COc2ccc(Nc3ncncc3C#Cc3cccc(CNCCN4CCOCC4)n3)cc2Cl)c1`, the half-inhibitory concentration (IC50) lay within 0.1 to 1 µM. For `C(=C\c1cncnc1Nc1ccc2sc(Cc3ccccc3)nc2c1)/c1ccsc1`, the half-inhibitory concentration (IC50) is above 1 µM. As for `CN(CCO)C(=O)NCc1cccc(C#Cc2cncnc2Nc2ccc(OCc3cccc(F)c3)c(Cl)c2)n1`, the figure is at most 10 µM; as for `Nc1ccc(C#Cc2cncnc2Nc2ccc(OCc3cccc(F)c3)c(Cl)c2)cn1`, at most 10 µM. Compound `N=C(N)Nc1cccc(C#Cc2cncnc2Nc2ccc(OCc3cccc(F)c3)c(Cl)c2)c1` had a half-inhibitory concentration (IC50) of 0.1 to 1 µM.

Turning to `Fc1cccc(COc2ccc(Nc3ncncc3C#Cc3ccsc3)cc2Cl)c1`, the half-inhibitory concentration (IC50) was at most 10 µM. The figure for `COc1ccc(/C=C/c2cncnc2Nc2ccc(OCc3cccc(F)c3)c(Cl)c2)cc1OC` is below 0.1 µM; for `CNCc1cccc(C#Cc2cncnc2Nc2ccc(OCc3cccc(F)c3)c(Cl)c2)n1` it is at most 10 µM. The figure for `Fc1cccc(COc2ccc(Nc3ncncc3C#Cc3ccccn3)cc2Cl)c1` is at most 10 µM; for `OCc1ccc(C#Cc2cncnc2Nc2ccc(OCc3cccc(F)c3)c(Cl)c2)o1` it is at most 10 µM. The figure for `CC(=O)Nc1cccc(C#Cc2cncnc2Nc2ccc(Oc3ccccc3)cc2)c1` is at most 10 µM; for `Fc1cccc(COc2ccc(Nc3ncncc3C#Cc3cccc(CN4CCCCC4)n3)cc2Cl)c1` it is below 0.1 µM; for `COCCNCc1cccc(C#Cc2cncnc2Nc2ccc(OCc3cccc(F)c3)c(Cl)c2)n1` it is at most 10 µM.

`C(=C\c1cncnc1Nc1ccc2[nH]c(Cc3ccccc3)nc2c1)/c1cn[nH]c1`: the half-maximal inhibitory concentration (IC50) was at most 10 µM. In the case of `Fc1cccc(COc2ccc(Nc3ncncc3C#Cc3cncnc3)cc2Cl)c1`, the IC50 was at most 10 µM.

`Fc1cccc(COc2ccc(Nc3ncncc3/C=C/c3cn[nH]c3)cc2Cl)c1` yielded an IC50 of at most 10 µM.

Compound `CC(=O)Nc1cccc(C#Cc2cncnc2Nc2ccc3c(cnn3Cc3ccccc3)c2)c1` gave an IC50 of at most 10 µM. The compound `Fc1cccc(COc2ccc(Nc3ncncc3C#Cc3ccccc3)cc2Cl)c1` showed a half-inhibitory concentration (IC50) of at most 10 µM.

`CS(=O)(=O)CCNc1nc(C#Cc2cncnc2Nc2ccc(OCc3cccc(F)c3)c(Cl)c2)ncc1C#N` gave an IC50 of at most 10 µM. As to `CC(=O)Nc1cccc(/C=C/c2cncnc2Nc2ccc3c(cnn3Cc3ccccc3)c2)c1`, the IC50 was at most 10 µM. Compound `Oc1cccnc1/C=C/c1cncnc1Nc1ccc2c(cnn2Cc2ccccc2)c1` displayed a 50% inhibitory concentration (IC50) of at most 10 µM.

Regarding `C(=C\c1cncnc1Nc1ccc2c(cnn2Cc2ccccc2)c1)/c1cccnc1`, the IC50 was at most 10 µM.

Turning to `N#Cc1cccc(C#Cc2cncnc2Nc2ccc(OCc3cccc(F)c3)c(Cl)c2)c1`, the IC50 was at most 10 µM. With `CC(=O)Nc1cccc(/C=C/c2cncnc2Nc2ccc(OCc3cccc(F)c3)c(Cl)c2)c1`, the IC50 was below 0.1 µM. The figure for `Fc1cccc(COc2ccc(Nc3ncncc3C#Cc3ncccn3)cc2Cl)c1` is at most 10 µM; for `CN(C)Cc1cccc(C#Cc2cncnc2Nc2ccc(OCc3cccc(F)c3)c(Cl)c2)n1` it is at most 10 µM. In turn, `CS(=O)(=O)CCNC(=O)NCc1cccc(C#Cc2cncnc2Nc2ccc(OCc3cccc(F)c3)c(Cl)c2)n1` had a half-maximal inhibitory concentration (IC50) below 0.1 µM. Compound `CSCCC(=O)Nc1cccc(C#Cc2cncnc2Nc2ccc(OCc3cccc(F)c3)c(Cl)c2)c1` had a concentration for half-maximal inhibition (IC50) of at most 10 µM.

For the compound `Fc1cccc(COc2ccc(Nc3ncncc3C#Cc3cccc(CNCc4ccccc4)n3)cc2Cl)c1`, the concentration for half-maximal inhibition (IC50) is at most 10 µM.
